Where two headings read alike, the source gives them in different places.
Legend:
[1] = cited from earlier work; for dose proportionality in exposure: single agent
[2] = Extensive tissue distribution study in CT26 tumor-bearing mice; format: in vivo, Balb/c mice; settings: for Kp: oral, 75 mg/kg
Description: Mice were injected subcutaneously on the right flank with 1x10^6 CT26 cells, a murine colorectal carcinoma cell line from BALB/c mice,obtained from ATCC (Manassas, VA). Cells were cultured in RPMI-1640 medium with L-glutamine (BioWhittaker Inc., Walkersville, MD), containing 10% heat-inactivated fetal bovine serum and 100 units of penicillin/mL and 100 μg/mL of streptomycin (Biofluids, BioSource, Rockville, MD) in an incubator with 95% air, 5% CO2, and 95% humidity at 37 °C. Cells were verified and checked for mycoplasm by IDEXX BioAnalytics (Westbrook, ME). Implantation and tumor growth were monitored twice weekly with a digital caliper. When tumors were approximately 200 mm^3, mice were stratified into time groups (N=3) primarily using body weight and secondarily using tumor size. Mice were administered 75 mg/kg PO through oral gavage. […] Bone marrow was obtained by flushing both femurs from each mouse with PBS, followed by centrifugation at 12,000 x g and removal of the supernatant. Protein analysis of the resuspended pellet was conducted using the Bio-Rad protein assay following the manufacturer’s instructions with bovine serum albumin as the standard. Blood was processed to obtain plasma and urine and feces were collected as described above.
For tissue and tumor analysis, samples were homogenized with 3 parts PBS (v/g) and further diluted with control plasma and concentrations determined from calibration curves prepared in control plasma.

[3] = Balb/c, mouse, 75 mg/kg PO-ext, plasma

## C[C@@H]1COCCN1c1cc(C2([S@](C)(=N)=O)CC2)nc(-c2cc[nH]c3nccc2-3)n1 [AZD6738]
[1]; BID with olaparib and durvalumab, 60 to 240 mg
  dose proportionality: dose proportionality
[1]; clinical studies
  dose limiting toxicity (DLT): thrombocytopenia
[1]; clinical, increased up to 10 μg/mL
  concentration at which monocyte and thrombocyte decreases occurred (PK-PD model): 2.5 µg/mL
[1]; 20 to 40 mg BID
  dose proportionality in exposure: greater than proportional increases
[1]; 80 to 240 mg BID
  dose proportionality in exposure: approximate dose proportionality
[2]; 75 mg/kg PO-ext
  Cl: 37.3 mL/min/kg
  Vd: 5.66 L/kg
[2]; 75 mg/kg PO-ext, unaltered drug
  0-24h urine: 3.19 % dose
[2]; 75 mg/kg PO-ext, unchanged drug
  0-24h feces: 8.58 % dose
[2]; 75 mg/kg PO, Plasma
  AUC0-∞: 2,371 (185) μg/mL•min
  Cmax: 14.1 (1.7) μg/mL
  Tmax: 15 min
[2]; 75 mg/kg PO, Plasma, 0-1440 min
  AUC(0-t): 2,371 (185) μg/mL•min
[2]; Balb/c, mouse, bone marrow / plasma, 75 mg/kg PO, Bone Marrow to corresponding plasma AUC (0-360), read-out: Partition Coefficient
  Kp: 4.6
[2]; Balb/c, mouse, brain, 75 mg/kg PO, Brain to corresponding plasma AUC (0-960), read-out: Partition Coefficient
  Kp: ~0.05
[2]; Balb/c, mouse, draining lymph node / plasma, 75 mg/kg PO, Draining Lymph Node to plasma AUC, read-out: Partition Coefficient
  Kp: 0.792
[2]; Balb/c, mouse, esophagus / plasma, 75 mg/kg PO, Esophagus to plasma AUC, read-out: Partition Coefficient
  Kp: 3.27
[2]; Balb/c, mouse, fat, 75 mg/kg PO, Fat to plasma AUC, read-out: Partition Coefficient
  Kp: 0.412
[2]; Balb/c, mouse, kidney / plasma, 75 mg/kg PO, Kidneys to plasma AUC, read-out: Partition Coefficient
  Kp: 2.77
[2]; Balb/c, mouse, kidney, 75 mg/kg PO, Kidneys
  AUC(0-inf): 109000 ng·h/mL
[2]; Balb/c, mouse, kidney, 75 mg/kg PO, Kidneys, 0-1440 min, read-out: AUC0-t (converted)
  AUC(0-t): 109000 ng·h/mL
[2]; Balb/c, mouse, kidney, 75 mg/kg PO, Kidneys, read-out: Cmax
  Cmax: 39200 ng/mL
[2]; Balb/c, mouse, kidney, 75 mg/kg PO, Kidneys, read-out: Tmax (converted)
  Tmax: 15 min
[2]; Balb/c, mouse, liver / plasma, 75 mg/kg PO, Liver to plasma AUC, read-out: Partition Coefficient
  Kp: 7.42
[2]; Balb/c, mouse, lung, 75 mg/kg PO, Lungs
  AUC(0-inf): 42100 ng·h/mL
[2]; Balb/c, mouse, lung, 75 mg/kg PO, Lungs, 0-1440 min, read-out: AUC0-t (converted)
  AUC(0-t): 42100 ng·h/mL
[2]; Balb/c, mouse, lung, 75 mg/kg PO, Lungs, read-out: Cmax
  Cmax: 17400 ng/mL
[2]; Balb/c, mouse, lung, 75 mg/kg PO, Lungs, read-out: Tmax (converted)
  Tmax: 15 min
[2]; Balb/c, mouse, non-draining lymph node / plasma, 75 mg/kg PO, Non-draining Lymph Node to plasma AUC, read-out: Partition Coefficient
  Kp: 0.983
[2]; Balb/c, mouse, red blood cells (RBC) / plasma, 75 mg/kg PO, RBC to plasma AUC, read-out: Partition Coefficient
  Kp: 0.701
[2]; Balb/c, mouse, red blood cells (RBC), 75 mg/kg PO, RBC
  AUC(0-inf): 27700 ng·h/mL
[2]; Balb/c, mouse, red blood cells (RBC), 75 mg/kg PO, RBC, 0-1440 min, read-out: AUC0-t (converted)
  AUC(0-t): 27700 ng·h/mL
[2]; Balb/c, mouse, red blood cells (RBC), 75 mg/kg PO, RBC, read-out: Cmax
  Cmax: 13200 ng/mL
[2]; Balb/c, mouse, red blood cells (RBC), 75 mg/kg PO, RBC, read-out: Tmax (converted)
  Tmax: 15 min
[2]; Balb/c, mouse, skeletal muscle, 75 mg/kg PO, Muscle
  AUC(0-inf): 41200 ng·h/mL
[2]; Balb/c, mouse, skeletal muscle, 75 mg/kg PO, Muscle, 0-1440 min, read-out: AUC0-t (converted)
  AUC(0-t): 41200 ng·h/mL
[2]; Balb/c, mouse, skeletal muscle, 75 mg/kg PO, Muscle, read-out: Cmax
  Cmax: 12500 ng/mL
[2]; Balb/c, mouse, skeletal muscle, 75 mg/kg PO, Muscle, read-out: Tmax (converted)
  Tmax: 15 min
[2]; Balb/c, mouse, small intestine / plasma, 75 mg/kg PO, Small Intestine to plasma AUC, read-out: Partition Coefficient
  Kp: 8.39
[2]; Balb/c, mouse, spinal cord, 75 mg/kg PO, Spinal Cord to plasma AUC, read-out: Partition Coefficient
  Kp: ~0.05
[2]; Balb/c, mouse, spleen / plasma, 75 mg/kg PO, Spleen to plasma AUC, read-out: Partition Coefficient
  Kp: 0.891
[2]; Balb/c, mouse, thymus / plasma, 75 mg/kg PO, Thymus to plasma AUC, read-out: Partition Coefficient
  Kp: 0.652
[2]; Balb/c, mouse, tumor / plasma, 75 mg/kg PO, Tumor to plasma AUC, read-out: Partition Coefficient
  Kp: 0.75
[2]; Balb/c, mouse, tumor, 75 mg/kg PO, CT26 tumor, read-out: Tumor exposure relative to plasma
  Kp: ~0.75
[2]; Balb/c, mouse, 75 mg/kg PO-ext (tissue distribution study), plasma, read-out: Cmax
  Cmax: 14100 ng/mL
[2]; [3]
  AUC(0-inf): 39500 ng·h/mL
  half-life: 105 min
[2]; Balb/c, mouse, 75 mg/kg PO-ext, plasma, read-out: AUC0-360 (converted)
  AUC(0-t): 39500 ng·h/mL
[2]; Balb/c, mouse, 75 mg/kg PO-ext, plasma, read-out: Tmax (converted)
  Tmax: 15 min
[2]; Balb/c, mouse, 75 mg/kg PO, Bone Marrow
  AUC(0-inf): 133000 ng·h/mL
[2]; Balb/c, mouse, 75 mg/kg PO, Bone Marrow, 0-360 min, read-out: AUC0-t (converted)
  AUC(0-t): 133000 ng·h/mL
[2]; Balb/c, mouse, 75 mg/kg PO, Bone Marrow, read-out: Cmax
  Cmax: 65800 ng/mL
[2]; Balb/c, mouse, 75 mg/kg PO, Bone Marrow, read-out: Tmax (converted)
  Tmax: 30 min
[2]; Balb/c, mouse, 75 mg/kg PO, Brain
  AUC(0-inf): 2100 ng·h/mL
[2]; Balb/c, mouse, 75 mg/kg PO, Brain, 0-960 min, read-out: AUC0-t (converted)
  AUC(0-t): 2100 ng·h/mL
[2]; Balb/c, mouse, 75 mg/kg PO, Brain, read-out: Cmax
  Cmax: 854 ng/mL
[2]; Balb/c, mouse, 75 mg/kg PO, Brain, read-out: Tmax (converted)
  Tmax: 15 min
[2]; Balb/c, mouse, 75 mg/kg PO, CT26 Tumor
  AUC(0-inf): 29600 ng·h/mL
[2]; Balb/c, mouse, 75 mg/kg PO, CT26 Tumor, 0-1440 min, read-out: AUC0-t (converted)
  AUC(0-t): 29600 ng·h/mL
[2]; Balb/c, mouse, 75 mg/kg PO, CT26 Tumor, read-out: Cmax
  Cmax: 10100 ng/mL
[2]; Balb/c, mouse, 75 mg/kg PO, CT26 Tumor, read-out: Tmax (converted)
  Tmax: 30 min
[2]; Balb/c, mouse, 75 mg/kg PO, Draining Lymph Node
  AUC(0-inf): 31300 ng·h/mL
[2]; Balb/c, mouse, 75 mg/kg PO, Draining Lymph Node, 0-1440 min, read-out: AUC0-t (converted)
  AUC(0-t): 31200 ng·h/mL
[2]; Balb/c, mouse, 75 mg/kg PO, Draining Lymph Node, read-out: Cmax
  Cmax: 12100 ng/mL
[2]; Balb/c, mouse, 75 mg/kg PO, Draining Lymph Node, read-out: Tmax (converted)
  Tmax: 15 min
[2]; Balb/c, mouse, 75 mg/kg PO, Esophagus
  AUC(0-inf): 129000 ng·h/mL
[2]; Balb/c, mouse, 75 mg/kg PO, Esophagus, 0-1440 min, read-out: AUC0-t (converted)
  AUC(0-t): 129000 ng·h/mL
